Experimental data: patent US12441704B2, “Compounds active towards nuclear receptors” (NUEVOLUTION A/S, priority 2019, dated 2025)
Like-named read-outs stand apart in the source and are kept apart here.

Target: T1, RORγ ligand-binding domain fused to Gal4 (Homo sapiens, UniProt P51449)
T1 construct: Gal4 (galactose-responsive transcription factor); expressed in transfected cells; host or cells: HEK293
T1 sequence (P51449 269-508 limits assumed): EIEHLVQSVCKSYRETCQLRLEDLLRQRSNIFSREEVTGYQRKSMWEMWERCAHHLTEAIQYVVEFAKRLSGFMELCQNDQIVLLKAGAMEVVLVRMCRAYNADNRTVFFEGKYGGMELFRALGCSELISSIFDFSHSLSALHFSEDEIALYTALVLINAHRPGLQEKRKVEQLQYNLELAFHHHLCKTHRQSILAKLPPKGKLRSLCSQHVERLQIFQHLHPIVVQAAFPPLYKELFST
Assay: RORγ Reporter Assay (Gal4)
Type: cell-based
Experimental: The HEK293 cell line is co-transfected transiently with two plasmids, one with the RORγ ligand-binding domain fused to galactose-responsive transcription factor (Gal4), and the other with the luciferase reporter gene and Gal binding sites (UAS). This construction allows to determine the RORγ activity in a cellular system through the measurement of luminescence.
A suspension of RORγ reporter cells was dispensed into plates and cultured 2 h at 37° C. and 5% CO2. Media formulation consisted in DMEM/F-12 medium (Gibco) supplemented with 10% heat inactivated FBS (Sigma-Aldrich), non-essential aminoacids (Sigma-Aldrich), 2 mM Glutamax (Gibco) and 100 U/mL penicillin (Sigma-Aldrich). Dose-response curves with compounds were prepared in 100% DMSO and further diluted 100-fold in culture medium. Compound solutions were added to the plate containing cells (final DMSO concentration of 0.1%) and incubated for 24 h at 37° C. and 5% CO2. Luciferase detection reagent was added to each well, and relative light units (RLUs) were quantified from each assay well using a plate reading luminometer.
Values of average RLU±S.D. were computed for all treatment sets, followed by the calculations of percent-reduction of RORγ activity in response to respective test compound. The following formula was used: activity=100*[1−[x test compound/average vehicle] where the theoretical minimum reduction (0% reduction).

[1] = HEK293 cells co-transfected with RORγ LBD-Gal4 and luciferase reporter, 24 h incubation, absolute EC50, read-out: EC50

With `NC(=O)CN1CC[C@H](CNc2ncnc(N(Cc3cnc(C(F)(F)F)nc3)C3CCC3)c2F)[C@@H](O)C1` (racemic) [Example A7-18, rac-2-((3R,4R)-4-(((6-(cyclobutyl((2-(trifluoromethyl)pyrimidin-5-yl)methyl)amino)-5-fluoropyrimidin-4-yl)amino)methyl)-3-hydroxypiperidin-1-yl)acetamide] the EC50 [1] was 130 nM.

`CC(C)N(Cc1ccc(C(F)(F)F)cc1)c1ncnc(NC[C@H]2CCN(CC(N)=O)C[C@@H]2O)c1F` (racemic) [Example A7-19, rac-2-((3R,4R)-4-(((5-fluoro-6-(isopropyl(4-(trifluoromethyl)benzyl)amino)pyrimidin-4-yl)amino)methyl)-3-hydroxypiperidin-1-yl)acetamide] showed an EC50 [1] of 42 nM.

For `CN(Cc1ccc(C(F)(F)F)cc1)c1ncnc(NC[C@H]2CCN(CC(N)=O)C[C@@H]2O)c1F` (racemic) [Example A7-20, rac-2-((3R,4R)-4-(((5-fluoro-6-(methyl(4-(trifluoromethyl)benzyl)amino)pyrimidin-4-yl)amino)methyl)-3-hydroxypiperidin-1-yl)acetamide], the EC50 [1] was 26 nM.

`NC(=O)CN1CC[C@H](CNc2ncnc(N(Cc3ccc(C(F)(F)F)cc3F)C3CC3)c2F)[C@@H](O)C1` (racemic) [Example A7-22, rac-2-((3R,4R)-4-(((6-(cyclopropyl(2-fluoro-4-(trifluoromethyl)benzyl)amino)-5-fluoropyrimidin-4-yl)amino)methyl)-3-hydroxypiperidin-1-yl)acetamide] was tested, and the EC50 [1] was 4 nM.

In the case of `NC(=O)CN1CC[C@@H](CNc2ncnc(N(Cc3ccc(C(F)(F)F)nc3)C3CCC3)c2F)[C@H](O)C1` (racemic) [Example A7-23, rac-2-((3R,4R)-4-(((6-(cyclobutyl((6-(trifluoromethyl)pyridin-3-yl)methyl)amino)-5-fluoropyrimidin-4-yl)amino)methyl)-3-hydroxypiperidin-1-yl)acetamide], the EC50 [1] is reported as 81 nM.

In the case of `NC(=O)CN1CC[C@@H](CNc2ncnc(N(Cc3ccc(C(F)(F)F)cn3)C3CCC3)c2F)[C@H](O)C1` (racemic) [Example A7-24, rac-2-((3R,4R)-4-(((6-(cyclobutyl((5-(trifluoromethyl)pyridin-2-yl)methyl)amino)-5-fluoropyrimidin-4-yl)amino)methyl)-3-hydroxypiperidin-1-yl)acetamide], the EC50 [1] is reported as 120 nM.

`CCN(Cc1ccc(C(F)(F)F)cn1)c1ncnc(NC[C@@H]2CCN(CC(N)=O)C[C@H]2O)c1F` (racemic) [Example A7-27, rac-2-((3R,4R)-4-(((6-(ethyl((5-(trifluoromethyl)pyridin-2-yl)methyl)amino)-5-fluoropyrimidin-4-yl)amino)methyl)-3-hydroxypiperidin-1-yl)acetamide] showed an EC50 [1] of 540 nM.

In the case of `NC(=O)CN1CC[C@@H](CNc2ncnc(N(CCF)Cc3ccc(C(F)(F)F)cc3)c2F)[C@H](O)C1` (racemic) [Example A7-30, rac-2-((3R,4R)-4-(((5-fluoro-6-((2-fluoroethyl)(4-(trifluoromethyl)benzyl)amino)pyrimidin-4-yl)amino)methyl)-3-hydroxypiperidin-1-yl)acetamide], the EC50 [1] is reported as > 1000 nM.

`NC(=O)CN1CC[C@@H](CNc2ncnc(N(Cc3ccc(C(F)(F)F)cc3)C3CC3)c2F)[C@@H](O)C1` (racemic) [Example A7-49, rac-2-((3R,4S)-4-(((6-(cyclopropyl(4-(trifluoromethyl)benzyl)amino)-5-fluoropyrimidin-4-yl)amino)methyl)-3-hydroxypiperidin-1-yl)acetamide] gave an EC50 [1] of 168 nM.

With `NC(=O)C(C1CCOCC1)N1CC[C@@H](CNc2ncnc(N(Cc3ccc(C(F)(F)F)cc3)C3CC3)c2F)[C@H](O)C1` (mixture of isomers) [Example A7-71, rac-2-((3R,4R)-4-(((6-(Cyclopropyl(4-(trifluoromethyl)benzyl)amino)-5-fluoropyrimidin-4-yl)amino)methyl)-3-hydroxypiperidin-1-yl)-2-(tetrahydro-2H-pyran-4-yl)acetamide] the EC50 [1] was 3.9 nM.

For `CCN(Cc1ccc(-c2cnn(C)c2)cc1)c1ncnc(NC[C@@H]2CCN(CC(N)=O)C[C@H]2O)c1F` (racemic) [Example A7-72, rac-2-((3R,4R)-4-(((6-(ethyl(4-(1-methyl-1H-pyrazol-4-yl)benzyl)amino)-5-fluoropyrimidin-4-yl)amino)methyl)-3-hydroxypiperidin-1-yl)acetamide], the EC50 [1] was 52 nM.

In the case of `CCN(Cc1ccc(-c2cnn(CCO)c2)cc1)c1ncnc(NC[C@@H]2CCN(CC(N)=O)C[C@H]2O)c1F` (racemic) [Example A7-73, rac-2-((3R,4R)-4-(((6-(ethyl(4-(1-(2-hydroxyethyl)-1H-pyrazol-4-yl)benzyl)amino)-5-fluoropyrimidin-4-yl)amino)methyl)-3-hydroxypiperidin-1-yl)acetamide], the EC50 [1] is reported as 99 nM.

Compound `CCN(Cc1ccc(C(F)(F)CO)cc1)c1ncnc(NC[C@@H]2CCN(CC(N)=O)C[C@H]2O)c1F` (racemic) [Example A7-79, rac-2-((3R,4R)-4-(((6-((4-(1,1-difluoro-2-hydroxyethyl)benzyl)(ethyl)amino)-5-fluoropyrimidin-4-yl)amino)methyl)-3-hydroxypiperidin-1-yl)acetamide] has an EC50 [1] of 164 nM.

In the case of `CN(Cc1cccc(OC(F)(F)F)c1)c1ncnc(NC[C@@H]2CCN(CC(N)=O)C[C@H]2O)c1F` (racemic) [Example F2-07, rac-2-((3R,4R)-4-(((5-fluoro-6-(methyl(3-(trifluoromethoxy)benzyl)amino)pyrimidin-4-yl)amino)methyl)-3-hydroxypiperidin-1-yl)acetamide], the EC50 (compounds of the present disclosure, value from Table 2 herein, read-out: Gal4 assay EC50) is reported as < 100 nM.

For `NC(=O)CN1CC[C@H](CNc2ncnc(N(Cc3ccc(C(F)(F)F)cn3)C3CC3)c2F)[C@@H](F)C1` (relative stereo) [Example A7-04-2, rel-2-((3R,4R)-4-(((6-(cyclopropyl((5-(trifluoromethyl)pyridin-2-yl)methyl)amino)-5-fluoropyrimidin-4-yl)amino)methyl)-3-fluoropiperidin-1-yl)acetamide], the EC50 [1] was 89 nM.

With `NC(=O)CN1CC[C@H](CNc2ncnc(N(Cc3ccc(C(F)(F)F)cc3)C3CC3)c2F)[C@@H](F)C1` (relative stereo) [Example A7-05-2, rel-2-((3R,4R)-4-(((6-(cyclopropyl(4-(trifluoromethyl)benzyl)amino)-5-fluoropyrimidin-4-yl)amino)methyl)-3-fluoropiperidin-1-yl)acetamide] the EC50 [1] was 14 nM.

`CC(C)N(Cc1ccc(C(F)(F)F)cc1)c1ncnc(NC[C@H]2CCN(CC(N)=O)C[C@@H]2O)c1F` (relative stereo) [Example A7-19-1, rel-2-((3R,4R)-4-(((5-fluoro-6-(isopropyl(4-(trifluoromethyl)benzyl)amino)pyrimidin-4-yl)amino)methyl)-3-hydroxypiperidin-1-yl)acetamide] was tested, and the EC50 [1] was 40 nM.

Compound `CC(F)(F)c1ccc(CN(c2ncnc(NC[C@H]3CCN(CC(N)=O)C[C@@H]3O)c2F)C2CC2)cn1` (relative stereo) [Example A7-29-2, rel-2-((3R,4R)-4-(((6-(cyclopropyl((6-(1,1-difluoroethyl)pyridin-3-yl)methyl)amino)-5-fluoropyrimidin-4-yl)amino)methyl)-3-hydroxypiperidin-1-yl)acetamide] has an EC50 [1] of 70 nM.

Compound `CCN(Cc1ccc(C(F)(F)F)cc1)c1ncnc(NC[C@@H]2CCN(C(CCO)C(N)=O)C[C@H]2O)c1F` (relative stereo) [Example A7-67, rel-2-((3R,4R)-4-(((6-(ethyl(4-(trifluoromethyl)benzyl)amino)-5-fluoropyrimidin-4-yl)amino)methyl)-3-hydroxypiperidin-1-yl)-4-hydroxybutanamide] has an EC50 [1] of 43 nM.

`NC(=O)CN1CC[C@@](O)(CNc2ncnc(N(Cc3ccc(C(O)(C(F)(F)F)C(F)(F)F)cc3)C3CC3)c2F)[C@H](O)C1` (relative stereo) [Example D5-06, rel-2-((3R,4R)-4-(((6-(cyclopropyl(4-(1,1,1,3,3,3-hexafluoro-2-hydroxypropan-2-yl)benzyl)amino)-5-fluoropyrimidin-4-yl)amino)methyl)-3,4-dihydroxypiperidin-1-yl)acetamide] was tested, and the EC50 [1] was 16 nM.

With `NC(=O)CN1CC[C@](O)(CNc2ncnc(N(Cc3ccccc3F)C3CC3)c2F)[C@@H](O)C1` (relative stereo) [Example D5-10, rel-2-((3R,4R)-4-(((6-(cyclopropyl(2-fluorobenzyl)amino)-5-fluoropyrimidin-4-yl)amino)methyl)-3,4-dihydroxypiperidin-1-yl)acetamide] the EC50 [1] was > 1000 nM.

`NC(=O)CN1CC[C@H](CNc2ncnc(N(Cc3ccc(C(F)(F)F)cc3)C3CC3)c2F)[C@@H](F)C1` (single isomer, unassigned) [Example A7-05-1] was tested, and the EC50 (compounds of the present disclosure, source: Table 2 herein, read-out: Gal4 assay EC50) was < 100 nM.
